Data published in BindingDB's records for doi:10.1021/acs.jmedchem.1c00742 (H. Lee Moffitt Cancer Center and Research Institute, 2021).

Molecular target: T1, B-cell CLL/lymphoma 9 protein (Homo sapiens, UniProt O00512)
T1 sequence (O00512 whole entry): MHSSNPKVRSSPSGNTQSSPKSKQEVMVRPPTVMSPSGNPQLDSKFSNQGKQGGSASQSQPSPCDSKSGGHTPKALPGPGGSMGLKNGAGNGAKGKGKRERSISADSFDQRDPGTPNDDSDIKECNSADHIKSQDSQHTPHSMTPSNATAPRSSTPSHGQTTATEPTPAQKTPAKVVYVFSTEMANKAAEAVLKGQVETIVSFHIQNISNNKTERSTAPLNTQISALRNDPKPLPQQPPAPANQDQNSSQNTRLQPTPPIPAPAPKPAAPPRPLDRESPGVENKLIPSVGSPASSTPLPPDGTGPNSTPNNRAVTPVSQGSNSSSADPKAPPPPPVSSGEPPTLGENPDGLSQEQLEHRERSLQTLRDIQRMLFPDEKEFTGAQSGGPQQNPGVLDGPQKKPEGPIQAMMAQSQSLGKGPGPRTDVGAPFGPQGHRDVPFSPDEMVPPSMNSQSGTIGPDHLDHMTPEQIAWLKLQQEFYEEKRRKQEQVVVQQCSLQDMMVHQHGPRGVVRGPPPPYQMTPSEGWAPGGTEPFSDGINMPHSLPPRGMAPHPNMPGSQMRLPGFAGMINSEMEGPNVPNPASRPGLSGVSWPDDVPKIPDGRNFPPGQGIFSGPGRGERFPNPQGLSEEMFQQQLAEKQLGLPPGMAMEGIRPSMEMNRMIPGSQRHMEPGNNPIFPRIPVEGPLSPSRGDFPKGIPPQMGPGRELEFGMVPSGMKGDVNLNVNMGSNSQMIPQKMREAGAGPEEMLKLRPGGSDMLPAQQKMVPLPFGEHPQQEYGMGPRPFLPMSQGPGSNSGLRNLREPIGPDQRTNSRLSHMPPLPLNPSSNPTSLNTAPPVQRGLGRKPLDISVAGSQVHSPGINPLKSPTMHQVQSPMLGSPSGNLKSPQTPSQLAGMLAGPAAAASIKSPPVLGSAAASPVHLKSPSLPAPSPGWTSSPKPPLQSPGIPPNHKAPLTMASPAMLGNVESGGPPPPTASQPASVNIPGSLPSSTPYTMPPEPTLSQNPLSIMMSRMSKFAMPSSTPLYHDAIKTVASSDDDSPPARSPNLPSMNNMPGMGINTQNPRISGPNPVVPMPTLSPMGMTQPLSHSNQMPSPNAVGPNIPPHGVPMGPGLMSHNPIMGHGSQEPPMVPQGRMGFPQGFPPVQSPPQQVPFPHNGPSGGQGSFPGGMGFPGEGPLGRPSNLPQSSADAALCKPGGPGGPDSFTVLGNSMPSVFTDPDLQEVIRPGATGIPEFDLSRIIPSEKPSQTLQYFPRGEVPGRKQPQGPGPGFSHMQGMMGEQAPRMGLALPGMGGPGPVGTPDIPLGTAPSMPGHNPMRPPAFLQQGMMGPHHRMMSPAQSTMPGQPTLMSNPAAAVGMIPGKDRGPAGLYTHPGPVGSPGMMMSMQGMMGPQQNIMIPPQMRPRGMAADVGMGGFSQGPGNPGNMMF
Experiment: Competitive binding affinity to C-terminal 6-His-tagged beta-catenin (1 to 781 residues) (unknown origin) expressed in Escherichia coli BL21 (DE3)- N-terminal biotinylated human BCL9 (350 to 375 residues) assessed as apparent dissociation constant incubated for 2 hrs by AlphaScreen assay

For `CC(C)(Oc1cccc(N2CCC[C@@H](C(=O)N(CCOCCOCCNC(=O)CCCC[C@@H]3SC[C@@H]4NC(=O)N[C@@H]43)Cc3ccc(-c4cn[nH]c4)cc3)C2)c1)C(=O)N1CCNCC1`, the Kd was 770 nM.
